Experimental data: PMC4491177, “Co-translational capturing of nascent ribosomal proteins by their dedicated chaperones” (Nature Communications, 2015)
Ends that are not written are not given here.

Columns and labels:
yeast strain YDK11-5A = experiment: growth assay, yEGFP fusion expression and chaperone overexpression; format: cell-based, S. cerevisiae; conditions: chaperones from GAL1-10 promoter, SGal-Leu-Trp plates, 30 °C
Description: Supplementary Figure 3 The N-terminal residues of Rpl10 and Rpl3 are sufficient and required for the interaction with Sqt1 and Rrb1, respectively. (a) The negative growth effect associated with L10-N- and L3-N-yEGFP expression is suppressed by overexpression of Sqt1 and Rrb1, respectively. The wild-type strain YDK11-5A was co-transformed with plasmids expressing yEGFP, Rpl10(1-20)-yEGFP or Rpl3(1-23)-yEGFP from the cognate RPL10 or RPL3 promoter, respectively, and empty vector or plasmids expressing Sqt1 or Rrb1 from the inducible GAL1-10 promoter. Transformants were first selected and then restreaked on SGal-Leu-Trp plates. Cells were spotted in 10-fold serial dilution steps onto SC-Leu-Trp (Glucose, Glu) and SGal-Leu-Trp (Galactose, Gal) plates, which were incubated for 3 d or 4 d at 30 °C, respectively. (b) The N-terminal residues of Rpl10 and Rpl3 are sufficient to mediate interaction with their chaperones in vivo. Tandem-affinity purification of C-terminally TAP-tagged Sqt1 (Sqt1-TAP, lanes 1 and 2) and N-terminally TAP-tagged Rrb1 (NTAP-Rrb1, […]
(1 picture or pasted object on this page, not shown here)

NTAP-Rrb1 [1] = experiment: co-translational capturing of yEGFP fusion by qRT-PCR, NTAP-Rrb1 purification; format: binding, S. cerevisiae; conditions: vs yEGFP control mRNA; expressed 10 min from copper-inducible promoter, then cycloheximide
Procedure: Cells expressing Sqt1-TAP, NTAP-Rrb1, Syo1-FTpA and Yar1-TAP were grown at 30 °C in 400 ml YPD medium to an optical density (OD600) of 0.8, then cycloheximide was added to a final concentration of 0.2 mg ml^−1 and the flasks were kept, with intermittent vigorous shaking, on ice for 5 min. Cells were harvested by centrifugation for 5 min at 4 °C at 4,000 r.p.m., washed once with 20 ml of ice-cold lysis buffer (100 mM NaCl, 50 mM Tris-HCl (pH 7.5), 1.5 mM MgCl2, 0.1% NP-40 and 5% glycerol) containing 1 mM PMSF and 0.2 mg ml^−1 cycloheximide (lysis buffer-PC) and resuspended in 2 ml of lysis buffer-PC. Equal volumes of the resuspended cells were transferred into two 2.2 ml Eppendorf tubes, briefly centrifuged and resuspended in 600 μl of ice-cold lysis buffer-PC. To prevent RNA degradation, 4 μl of RiboLock (40 U μl^−1; Fermentas) was added. Then glass beads, corresponding to 1/3 of the lysis buffer volume, were added and the tubes were vigorously vortexed for 10 × 30 s with 30-s intervals on ice. Cell extracts were transferred to a new tube and, to maximize the yield, 400 μl of ice-cold lysis buffer-PC was used to rinse the glass beads. […]
For RNA isolation from the TEV eluate aliquot (∼450 μl), the TEV eluate was adjusted to 10 mM EDTA (pH 8.0) and 0.5% SDS. […] RNA concentrations (A260) were determined using a NanoDrop 1000 spectrophotometer (Thermo Scientific). […]

NTAP-Rrb1 [2] = experiment: in vivo co-purification (TAP) with NTAP-Rrb1; format: binding, S. cerevisiae; conditions: CUP1 promoter, 30 min with 500 µM copper sulfate
Procedure: (§1) Cells expressing Sqt1-TAP and NTAP-Rrb1 were grown at 30 °C in 4 l yeast extract peptone dextrose (YPD) medium to an optical density (OD600) of 2. Cell extracts were obtained by glass bead lysis with a Pulverisette (Fritsch). TAPs were performed in a buffer containing 50 mM Tris-HCl (pH 7.5), 100 mM NaCl, 1.5 mM MgCl2, 5% glycerol and 0.1% NP-40 as described. The EGTA eluates were precipitated by the addition of TCA to a final concentration of 10% and, after an acetone wash, dissolved in 80 μl of 3 × SDS sample buffer. […]
(§2) lanes 3 and 4) from cells where expression of the yEGFP control protein (lanes 1 and 3) or the Rpl10(1-20)-yEGFP (lane 2) and Rpl3(1-23)-yEGFP (lane 4) fusion proteins has been induced from the CUP1 promoter for 30 min with 500 µM copper sulfate. Final EGTA eluates were analyzed by SDS-PAGE and Coomassie staining (top) or by Western blotting using anti-CBP, anti-Flag, anti-GFP, anti-Rpl10, and anti-Rpl3 antibodies (bottom). Total cell extracts (input) were analyzed by Western blotting using anti-proteinA, anti-GFP, and anti-Adh1 (loading control) antibodies. […]
(§3) Final EGTA eluates were analyzed by SDS-PAGE and Coomassie staining (top) or by Western blotting using anti-CBP, anti-Flag, anti-HA, anti-Rpl10, and anti-Rpl3 antibodies (bottom). […] Total cell extracts (input) were analyzed by Western blotting using anti-proteinA, anti-HA, and anti-Adh1 (loading control) antibodies. […]

Sqt1-TAP [3] = experiment: co-translational capturing of yEGFP fusion by qRT-PCR, Sqt1-TAP purification; format: binding, S. cerevisiae; conditions: vs yEGFP control mRNA; expressed 10 min from copper-inducible promoter, then cycloheximide
Procedure: Figure 7 Chaperones are recruited to nascent ribosomal proteins. (a) The chaperone proteins were affinity purified (IgG-Sepharose pull-down) from extracts of cycloheximide-treated cells and the associated RNA was isolated from the TEV eluates. Each of the four chaperone purifications (NTAP-Rrb1, Syo1-FTpA, Sqt1-TAP, and Yar1-TAP) was assessed for their content of the four ribosomal protein (RP) mRNAs (RPL3, RPL5, RPL10 and RPS3) by real-time qRT–PCR. The data from one representative experiment are expressed as the relative enrichment of the specifically co-purified RP mRNA in each of the four chaperone purifications (see Methods section for details). For each cDNA, real-time qPCRs were performed in triplicates. A highly reproducible data set was obtained in an independent series of chaperone purifications. (b) The N-terminal residues of Rpl10 are sufficient to target Sqt1 to the nascent Rpl10(1–20)-yEGFP fusion protein. […] The Sqt1-TAP purifications were assessed for their content of the RPL3, RPL10 and yEGFP (GFP) mRNAs by real-time qRT–PCR. The data from one representative experiment are expressed as the fold enrichment relative to the RPL3 mRNA. […]

Sqt1-TAP [4] = experiment: in vivo co-purification (TAP) with Sqt1-TAP; format: binding, S. cerevisiae; conditions: CUP1 promoter, 30 min with 500 µM copper sulfate
Procedure: as §1, §2, §3

Rpl3 = experiment: tandem-affinity purification of NTAP-Rrb1; format: binding, S. cerevisiae; conditions: TAP from yeast cell lysate, EGTA eluate, Coomassie
Procedure: (§4) Cells expressing Sqt1-TAP and NTAP-Rrb1 were grown at 30 °C in 4 l yeast extract peptone dextrose (YPD) medium to an optical density (OD600) of 2. Cell extracts were obtained by glass bead lysis with a Pulverisette (Fritsch). TAPs were performed in a buffer containing 50 mM Tris-HCl (pH 7.5), 100 mM NaCl, 1.5 mM MgCl2, 5% glycerol and 0.1% NP-40 as described. The EGTA eluates were precipitated by the addition of TCA to a final concentration of 10% and, after an acetone wash, dissolved in 80 μl of 3 × SDS sample buffer. Protein samples were separated on NuPAGE 4–12% Bis-Tris 12-well gels (Novex), run in 1 × MES SDS running buffer, and subsequently stained with Brilliant Blue G Colloidal Coomassie (Sigma).

Rpl10 = experiment: tandem-affinity purification of Sqt1-TAP; format: binding, S. cerevisiae; conditions: TAP from yeast cell lysate, EGTA eluate, Coomassie
Procedure: as §4

Molecule: L3-N (amino acids 1–23) yEGFP (MSHRKYEAPRHGHLGFLPRKRAA; also: fused to yEGFP, end not given here; UniProt P14126 1-23, looked up, fragment)
- growth defect associated with expression, upon overexpression of Sqt1 or Rrb1, respectively (yeast strain YDK11-5A): efficiently suppressed
- enrichment of fusion mRNA in NTAP-Rrb1 purification (NTAP-Rrb1 [1]): clearly enriched compared with the yEGFP control mRNA
- in vivo co-purification with the NTAP-Rrb1 bait (NTAP-Rrb1 [2]): specifically co-purified in vivo

Molecule: L10-N (amino acids 1–20) yEGFP (MARRPARCYRYQKNKPYPKS; also: fused to yEGFP; UniProt P41805 1-20, looked up, fragment)
- enrichment of fusion mRNA in Sqt1-TAP purification (Sqt1-TAP [3]): clearly enriched compared with the yEGFP control mRNA
- growth defect associated with expression, upon overexpression of Sqt1 or Rrb1, respectively (yeast strain YDK11-5A): efficiently suppressed
- in vivo co-purification with the Sqt1-TAP bait (Sqt1-TAP [4]): specifically co-purified in vivo

B1: NTAP-Rrb1: N-terminally TAP-tagged Rrb1 (protein)
chain: MSKRSIEVNEEQDRVVSAKTESHSVPAIPASEEQDAPKNDLEEQLSDEFDSDGEIIEIDGDDEINDEDDLRKKQEEAETLVQKDQSEGNKEKIQELYLPHMSRPLGPDEVLEADPTVYEMLHNVNMPWPCLTLDVIPDTLGSERRNYPQSILLTTATQSSRKKENELMVLALSNLAKTLLKDDNEGEDDEEDDEDDVDPVIENENIPLRDTTNRLKVSPFAISNQEVLTATMSENGDVYIYNLAPQSKAFSTPGYQIPKSAKRPIHTVKNHGNVEGYGLDWSPLIKTGALLSGDCSGQIYFTQRHTSRWVTDKQPFTVSNNKSIEDIQWSRTESTVFATAGCDGYIRIWDTRSKKHKPAISVKASNTDVNVISWSDKIGYLLASGDDNGTWGVWDLRQFTPSNADAVQPVAQYDFHKGAITSIAFNPLDESIVAVGSEDNTVTLWDLSVEADDEEIKQQAAETKELQEIPPQLLFVHWQKEVKDVKWHKQIPGCLVSTGTDGLNVWKTISV
modifications: left off: NTAP (proteinA-TEV-CBP-Flag), N-terminal, kept
- co-purification of Rpl3 (Rpl3): robust co-purification of Rpl3

B2: Sqt1-TAP: C-terminally TAP-tagged Sqt1 (protein)
chain: MEPQEEFITTEEVEQEIVPTVEVEQDVPVDIEGENDDDDEMMNDDEEALEVDMSNNSLTYFDKHTDSVFAIGHHPNLPLVCTGGGDNLAHLWTSHSQPPKFAGTLTGYGESVISCSFTSEGGFLVTADMSGKVLVHMGQKGGAQWKLASQMQEVEEIVWLKTHPTIARTFAFGATDGSVWCYQINEQDGSLEQLMSGFVHQQDCSMGEFINTDKGENTLELVTCSLDSTIVAWNCFTGQQLFKITQAEIKGLEAPWISLSLAPETLTKGNSGVVACGSNNGLLAVINCNNGGAILHLSTVIELKPEQDELDASIESISWSSKFSLMAIGLVCGEILLYDTSAWRVRHKFVLEDSVTKLMFDNDDLFASCINGKVYQFNARTGQEKFVCVGHNMGVLDFILLHPVANTGTEQKRKVITAGDEGVSLVFEVPN
modifications: left off: TAP, C-terminal, kept
- co-enrichment of Rpl10 (Rpl10): good co-enrichment of Rpl10
